# Test results reported in article PMC3002932 (PLoS ONE, 2010).
# “Also recorded” adds a separate entry of the source. Where two headings read alike, the source gives them in different places.
# How the values were obtained:
# [1] = test system: viral glycoproteins (GRFN-1 binding; gp120LAV chip); experiment: SPR competition of saccharides with GRFN-1 binding; parameters: species or system HIV-1
# Source text: α-D-mannopyranose (Man), L-fucopyranose (Fuc), α-D-galactopyranose (Gal), sialic acid (N-acetyl-neuraminic acid, Neu5Ac), N-acetyl-glucosamine (GlcNAc) and Man3(GlcNAc)2, a core pentasaccharide found in most N-linked oligosaccharides. All of these saccharides were purchased from Sigma-Aldrich (St. Louis, MO).
# [2] = test system: HIV-1 (BaL); format: cell-based; conditions: TZM-bl assay; for EC50: HIV-1 BaL (R5), 24 hr, luciferase activity
# Description: The ability of the analogs to inhibit HIV infection was determined with an assay that determines viral infectivity with an LTR-mediated luciferase reporter construct [37]. In brief, TZM-bl reporter cells are HeLa-derived JC53-BL cells that express high levels of CD4, CXCR4, and CCR5. They also contain reporter cassettes for luciferase and β-galactosidase, both driven by the HIV-1 long terminal repeat [38]). 24 hr after these reporter cells were exposed to R5 lab-adapted strains of HIV-1 (BaL) in the presence of peptides, protection was measured as % reduction in luciferase activity (relative light units) compared to cells infected with virus and peptide vehicle alone.
# [3] = test system: CCR5 (HIV-1BAL); experiment: p24^gag antigen release assay using PBMCs, CCR5 strain; format: cell-based; conditions: PBMC based p24^gag antigen release assay
# [4] = test system: CXCR4 (HIV-1IIIB); experiment: p24^gag antigen release assay using PBMCs, CXCR4 strain; format: cell-based; conditions: PBMC based p24^gag antigen release assay
# [5] = test system: HIV-1; conditions: read-out: average EC50; anti-HIV inhibitory activity; ref [20], [21]; cited from earlier work
# Source text: Preventing HIV-1 infection is the primary goal of pre- and post-exposure prophylaxis of HIV. Prophylactic modalities that block HIV-1 entry would be particularly valuable, because latent HIV-1 infections are typically refractory to therapeutic or immunological interventions [1]–[9]. […] Most anti-HIV lectins have been identified in and isolated from natural sources. They include cyanovirin-N [11], [12] and scytovirin [13] from cyanobac ...
compound,measurement,setting,value
"CC(=O)N[C@@H]1[C@@H](O)[C@H](O)[C@@H](CO)O[C@H]1O [GlcNAc, N-acetyl-glucosamine]",competition with binding of GRFN-1 to viral glycoproteins (in words),[1]; pH = 7.4,"interacted with all of these sugars, except fucose; also recorded: the most effective competitors"
"CC[C@H](C)[C@@H]1NC(=O)CNC(=O)[C@H](CCCCN)NC(=O)CNC(=O)[C@@H]2CSSC[C@H](NC1=O)C(=O)N[C@@H](CCCNC(=N)N)C(=O)N[C@H]1CSSC[C@H](NC(=O)[C@H](CCCNC(=N)N)NC(=O)[C@@H]3CSSC[C@H](NC(=O)[C@H]([C@@H](C)CC)NC1=O)C(=O)NCC(=O)N[C@@H](CCCNC(=N)N)C(=O)NCC(=O)N[C@@H]([C@@H](C)CC)C(=O)N3)C(=O)N[C@@H]([C@@H](C)CC)C(=O)N2 [RC-101, reference compound]",EC50,[2],3400 nM
"O=C[C@H](O)[C@@H](O)[C@@H](O)[C@H](O)CO [galactose, α-D-galactopyranose]",competition with binding of GRFN-1 to viral glycoproteins (in words),[1]; pH = 7.4,"interacted with all of these sugars, except fucose"
"OC[C@H]1O[C@H](O)[C@@H](O)[C@@H](O)[C@@H]1O [mannose, α-D-mannopyranose]",competition with binding of GRFN-1 to viral glycoproteins (in words),[1]; pH = 7.4,"interacted with all of these sugars, except fucose; also recorded: the most effective competitors"
same,competition with binding of GRFN-1 to viral glycoproteins (in words),"[1]; pH = 7.4, listed as D-Mannose",especially potent inhibitor that could almost completely abrogate binding of GRFN-1 to the viral glycoproteins
"CC(=O)N[C@H]1[C@H]([C@H](O)[C@H](O)CO)OC(O)(C(=O)O)C[C@@H]1O (stereo partly drawn) [sialic acid, N-acetyl-neuraminic acid]",competition with binding of GRFN-1 to viral glycoproteins (in words),[1]; pH = 7.4,"interacted with all of these sugars, except fucose; also recorded: less profound"
"Cha-SC-Chg-R-Chg-RSGSY-Cha-DR-Ch\g-R-Chg-(D)Cys-CONH2 (disulfide) [GRFN-2, otherwise identical peptide with an Asn to Arg substitution]",antiviral activity (in words),"[2]; dose response, Figure 4",considerably less active than GRFN-1
Man3GlcNAc2,competition with binding of GRFN-1 to viral glycoproteins (in words),[1]; pH = 7.4,"interacted with all of these sugars, except fucose"
griffithsin,antiviral activity (in words),[3],maintained their antiviral activity
same,antiviral activity (in words),[4],maintained their antiviral activity
same,EC50,[5],0.04 nM
same,EC50,[2]; griffithsin,0.0196 ± 0.0019 nM
